Measurements as given in PMC12316308, “Interactions of substrates and phosphinyl containing inhibitors with bacterial and human zinc proteases” (PLOS One, 2025).
Several values for one entry are separate records, joined by “and”; a condition that tells them apart may be missing. Identical values can stand only once. Like-named read-outs stand apart in the source and are kept apart here.

Tests used:
Assay type in all cases: biochemical
[1] = biological target: T1, human MT1-MMP/MMP-14 (catalytic domain) (Homo sapiens, UniProt P50281); assay: Enzyme inhibition kinetics, fluorogenic substrate ES001; conditions: MMP-14; for remaining activity at 100 µM: 100 µM inhibitor
T1 construct: human MT1-MMP/MMP-14 (catalytic domain); purchased Calbiochem (San Diego, CA, USA)
Protocol: (§1) Determination of reaction velocities. The substrate ES001 was used for APMA activated MMP-9 (MMP-9(A)), Mag-Trypsin activated MMP-9 (MMP-9(MT)) and MMP-14, while the substrate ES005 was used for ALN, PLN and TLN. The reaction velocities/initial rates (v) were determined at 37°C, at an excitation wavelength of 320 nm and an emission wavelength of 405 nm with a slit width of 10 nm using either a Perkin Elmer LS 50 Luminescence spectrometer and the FL WinLab Software Package (Perkin Elmer) or a Clario Star micro plate reader (CLARIOstar® BMG LABTECH).
(§2) The phosphinic compounds were dissolved in 100% DMSO to a final concentration of 10 mM. In all assays, a fixed substrate concentration of 4.0 µM was used in a total volume of 100 µL 0.1 M Hepes pH 7.5, 10 mM CaCl2, 0.005% Brij-35 and 1.0% DMSO. Fixed enzyme concentrations were as follows; 0.05 nM MMP-9(A), 0.05 nM MMP-9(MT), 1.0 nM MMP-14, 1.4 nM ALN, 0.5 nM PLN and 0.21 nM TLN. Time dependent inhibitory experiments, with and without 100 μM of phosphinic compounds, were performed as follows: Compounds were either pre-incubated with proteases for 15 and 30 minutes at room temperature before initiating the enzymatic reaction by adding the substrate, or not pre-incubated, meaning the reaction was initiated by adding the protease to the mixture of substrate and compound. Control tests without the compound present were performed under the same conditions. Reactions were monitored for 30 minutes at 37°C.
(§3) Determination of IC50 and Ki values. […] A fixed substrate concentration and the same enzyme and buffer conditions as described above were used. Enzymes, with or without inhibitors, were either pre-incubated for 30 minutes at room temperature or not pre-incubated, and initial rate assays were performed as described above. Assays were performed using a Clario Star microplate reader. The IC50 values with corresponding s.d. were calculated with GraphPad Prism 5 using equation 1 or 2, depending on the concentration range of the phosphinic compounds.
(§4) Equation 3 describe the relationship between IC50 and Ki values for substrate competitive inhibitors, considering the fixed substrate concentration and the enzyme’s Km value for the substrate: […]

[2] = biological target: T2, APMA activated MMP-9 (MMP-9(A)) (Homo sapiens, UniProt P14780); assay: as above; conditions: rMMP-9 (APMA activated); for remaining activity at 100 µM: 100 µM inhibitor
T2 construct: made in house; host or cells: Sf9 and High Five insect cells
Protocol: (§5) The expression of recombinant full length proMMP-9 (rpMMP-9) in Sf9 and High Five insect cells and the purification were performed as previously described. The amount of proMMP-9 was estimated spectrophotometrically at 280 nm using ε280nm = […] [46] for the full length enzyme. Activation of the recombinant proMMP-9 was performed with APMA (auto-activation) and Mag-Trypsin as previously described, while the amount of active MMP-9 was determined by active site titration using galardin, also described previously.
as §1, §2, §3, §4

[3] = biological target: T3, Mag-Trypsin activated MMP-9 (MMP-9(MT)) (Homo sapiens, UniProt P14780); assay: as above; conditions: rMMP-9 (Mag-trypsin activated); for remaining activity at 100 µM: 100 µM inhibitor
T3 construct: made in house; host or cells: Sf9 and High Five insect cells
Protocol: as §5, §1, §2, §3, §4

[4] = biological target: T4, aureolysin (ALN) (Staphylococcus aureus, UniProt P81177); assay: Enzyme inhibition kinetics, fluorogenic substrate ES005; conditions: for remaining activity at 100 µM: 100 µM inhibitor
T4 construct: purchased BioCentrum Ltd (Kraków, Poland)
Protocol: as §1, §2, §3, §4

[5] = biological target: T5, pseudolysin (PLN, LasB) (Pseudomonas aeruginosa, UniProt P14756); assay: as above; conditions: for remaining activity at 100 µM: 100 µM inhibitor
T5 construct: purchased Calbiochem (San Diego, CA, USA)
Protocol: as §1, §2, §3, §4

[6] = biological target: T6, thermolysin (TLN) (Bacillus thermoproteolyticus, UniProt P00800); assay: as above; conditions: for vi/v0 avg (time dependent inhibition, Supplementary Figure S8): Thermolysin, inhibitor 100 µM
T6 construct: purchased Calbiochem (San Diego, CA, USA)
Protocol: as §1, §2, §3, §4

[7] = 0.25 h, 15 min pre incubation, read-out: vi/v0 (single replicate)
[8] = 0.25 h, 15 min pre incubation, read-out: vi/v0 avg
[9] = 0.5 h, 30 min pre incubation, read-out: vi/v0 avg
[10] = no preincubation, read-out: vi/v0 (single replicate)
[11] = no preincubation, read-out: vi/v0 avg
[12] = inhibitor 100 μM, preincubation 0 min
[13] = inhibitor 100 μM, preincubation 15 min
[14] = inhibitor 100 μM, preincubation 30 min
[15] = 0.5 h, 30 min pre incubation, read-out: vi/v0 (single replicate)
[16] = inhibitor 100 μM, average over 0, 15, 30 min preincubation

T5 sequence (P14756 198-498): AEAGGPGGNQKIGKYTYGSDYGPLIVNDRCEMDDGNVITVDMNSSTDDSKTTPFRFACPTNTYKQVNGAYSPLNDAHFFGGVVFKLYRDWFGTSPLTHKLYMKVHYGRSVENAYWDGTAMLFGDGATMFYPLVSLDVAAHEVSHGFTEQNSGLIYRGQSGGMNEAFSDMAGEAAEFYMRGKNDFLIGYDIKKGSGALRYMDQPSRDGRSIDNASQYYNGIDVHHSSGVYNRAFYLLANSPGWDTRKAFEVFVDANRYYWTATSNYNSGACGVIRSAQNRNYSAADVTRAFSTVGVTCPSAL
T4 sequence (P81177 209-509): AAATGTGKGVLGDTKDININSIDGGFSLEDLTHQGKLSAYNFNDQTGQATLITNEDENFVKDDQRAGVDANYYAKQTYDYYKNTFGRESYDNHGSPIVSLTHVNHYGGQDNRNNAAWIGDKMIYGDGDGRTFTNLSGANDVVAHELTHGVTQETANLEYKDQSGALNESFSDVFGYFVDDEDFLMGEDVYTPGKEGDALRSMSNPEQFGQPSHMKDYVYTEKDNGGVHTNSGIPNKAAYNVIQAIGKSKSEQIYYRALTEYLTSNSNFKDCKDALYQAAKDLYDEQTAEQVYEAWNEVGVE
T3 sequence (P14780 107-707 limits assumed): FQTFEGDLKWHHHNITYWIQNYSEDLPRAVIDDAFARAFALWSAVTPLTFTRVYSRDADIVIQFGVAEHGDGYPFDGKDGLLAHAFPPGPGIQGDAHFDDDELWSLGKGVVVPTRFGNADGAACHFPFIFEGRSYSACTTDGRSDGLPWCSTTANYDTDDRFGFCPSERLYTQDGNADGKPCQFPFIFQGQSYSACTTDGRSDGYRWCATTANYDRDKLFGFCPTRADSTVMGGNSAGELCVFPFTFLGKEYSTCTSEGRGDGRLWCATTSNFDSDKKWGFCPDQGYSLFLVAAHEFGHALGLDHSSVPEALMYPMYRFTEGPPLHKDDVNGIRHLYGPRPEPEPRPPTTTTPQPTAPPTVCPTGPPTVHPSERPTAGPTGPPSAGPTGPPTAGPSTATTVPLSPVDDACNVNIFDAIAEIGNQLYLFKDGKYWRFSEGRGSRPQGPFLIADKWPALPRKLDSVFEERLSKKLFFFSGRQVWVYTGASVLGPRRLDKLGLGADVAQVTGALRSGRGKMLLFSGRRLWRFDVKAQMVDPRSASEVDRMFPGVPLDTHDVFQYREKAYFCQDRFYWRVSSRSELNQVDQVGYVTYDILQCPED
T2 sequence (P14780 107-707 limits assumed): as above
T6 sequence (P00800 233-548): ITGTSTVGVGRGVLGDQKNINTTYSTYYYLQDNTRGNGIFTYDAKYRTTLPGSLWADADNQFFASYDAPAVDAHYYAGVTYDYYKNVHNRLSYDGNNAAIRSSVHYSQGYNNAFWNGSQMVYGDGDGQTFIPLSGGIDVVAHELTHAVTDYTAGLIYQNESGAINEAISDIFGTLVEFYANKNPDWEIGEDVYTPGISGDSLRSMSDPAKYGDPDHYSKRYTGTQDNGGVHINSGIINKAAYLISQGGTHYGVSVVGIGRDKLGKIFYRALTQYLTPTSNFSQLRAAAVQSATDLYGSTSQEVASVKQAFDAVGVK

CCOC(=O)C(CO)CP(=O)(O)C(Cc1ccccc1)NC(=O)OCc1ccccc1 (stereo not drawn) [H5]
remaining activity at 100 µM [1, 7]: 87.2%
remaining activity at 100 µM [1, 8]: 88.7%
remaining activity at 100 µM [1, 9]: 96.8%
remaining activity at 100 µM [1, 10]: 96.3%
remaining activity at 100 µM [1, 11]: 98.5%
vi/v0 Av (bar diagram figure 7) ([1]; inhibitor 100 μM, average over preincubation times): 0.9417
vi/v0 (relative enzyme activity with inhibitor), single determinations [1, 12]: 0.9629 and 1.0076
vi/v0 (relative enzyme activity with inhibitor), single determinations [1, 13]: 0.8725 and 0.8868 and 0.9012
vi/v0 (relative enzyme activity with inhibitor), single determinations [1, 14]: 1.138 and 0.953 and 0.8121
remaining activity at 100 µM [2, 8]: 102%
remaining activity at 100 µM [2, 15]: 77.7%
remaining activity at 100 µM [2, 9]: 83.7%
remaining activity at 100 µM [2, 11]: 100%
vi/v0 Av (bar diagram figure 7) [2, 16]: 0.9644
vi/v0 (relative enzyme activity with inhibitor), single determinations [2, 12]: 1.202 and 0.9509 and 1.0525 and 0.8
vi/v0 (relative enzyme activity with inhibitor), single determinations [2, 13]: 1.106 and 1.228 and 0.879 and 0.8791
vi/v0 (relative enzyme activity with inhibitor), single determinations [2, 14]: 0.7771 and 0.9097 and 0.824
remaining activity at 100 µM [3, 7]: 87.3%
remaining activity at 100 µM [3, 8]: 84.8%
remaining activity at 100 µM [3, 15]: 86.9%
remaining activity at 100 µM [3, 9]: 88.1%
remaining activity at 100 µM [3, 10]: 88.4%
remaining activity at 100 µM [3, 11]: 88.5%
vi/v0 Av (bar diagram figure 7) [3, 16]: 0.8694
vi/v0 (relative enzyme activity with inhibitor), single determinations [3, 12]: 0.8838 and 0.8693 and 0.8452 and 0.9405
vi/v0 (relative enzyme activity with inhibitor), single determinations [3, 13]: 0.8726 and 0.9039 and 0.8256 and 0.7918
vi/v0 (relative enzyme activity with inhibitor), single determinations [3, 14]: 0.8689 and 0.8925
remaining activity at 100 µM ([4]; 0.25 h, read-out: vi/v0 (single replicate), Aureolysin, 15 min pre incubation): 84.1%
remaining activity at 100 µM ([4]; 0.25 h, read-out: vi/v0 avg, Aureolysin, 15 min pre incubation): 89.9%
remaining activity at 100 µM ([4]; 0.5 h, read-out: vi/v0 (single replicate), Aureolysin, 30 min pre incubation): 89.6%
remaining activity at 100 µM ([4]; 0.5 h, read-out: vi/v0 avg, Aureolysin, 30 min pre incubation): 87.3%
vi/v0 Av (bar diagram figure 7) ([4]; Aureolysin (ALN), inhibitor 100 μM, average over 0, 15, 30 min preincubation): 0.8959
vi/v0 (relative enzyme activity with inhibitor), single determinations ([4]; Aureolysin (ALN), inhibitor 100 μM, preincubation 0 min): 0.8465 and 0.9473 and 0.9691 and 0.8995
vi/v0 (relative enzyme activity with inhibitor), single determinations ([4]; Aureolysin (ALN), inhibitor 100 μM, preincubation 15 min): 0.8412 and 0.9365 and 0.9386 and 0.8803
vi/v0 (relative enzyme activity with inhibitor), single determinations ([4]; Aureolysin (ALN), inhibitor 100 μM, preincubation 30 min): 0.8961 and 0.824 and 0.8612 and 0.9107
remaining activity at 100 µM ([4]; read-out: vi/v0 (single replicate), Aureolysin, no preincubation): 84.6%
remaining activity at 100 µM ([4]; read-out: vi/v0 avg, Aureolysin, no preincubation): 91.6%
remaining activity at 100 µM ([5]; 0.25 h, read-out: vi/v0 (single replicate), Pseudolysin, 15 min pre incubation): 83.9%
remaining activity at 100 µM ([5]; 0.25 h, read-out: vi/v0 avg, Pseudolysin, 15 min pre incubation): 86.2%
remaining activity at 100 µM ([5]; 0.5 h, read-out: vi/v0 (single replicate), Pseudolysin, 30 min pre incubation): 86.3%
remaining activity at 100 µM ([5]; 0.5 h, read-out: vi/v0 avg, Pseudolysin, 30 min pre incubation): 75.4%
vi/v0 Av (bar diagram figure 7) ([5]; Pseudolysin (PLN), inhibitor 100 μM, average over 0, 15, 30 min preincubation): 0.86
vi/v0 (relative enzyme activity with inhibitor), single determinations ([5]; Pseudolysin (PLN), inhibitor 100 μM, preincubation 0 min): 1.071 and 0.9333 and 0.8899
vi/v0 (relative enzyme activity with inhibitor), single determinations ([5]; Pseudolysin (PLN), inhibitor 100 μM, preincubation 15 min): 0.8394 and 0.8848
vi/v0 (relative enzyme activity with inhibitor), single determinations ([5]; Pseudolysin (PLN), inhibitor 100 μM, preincubation 30 min): 0.863 and 0.6659 and 0.7323
remaining activity at 100 µM ([5]; read-out: vi/v0 (single replicate), Pseudolysin, no preincubation): 107%
remaining activity at 100 µM ([5]; read-out: vi/v0 avg, Pseudolysin, no preincubation): 96.5%
vi/v0 Av (bar diagram figure 7) ([6]; Thermolysin (TLN), inhibitor 100 μM, average over 0, 15, 30 min preincubation): 1.046
vi/v0 (relative enzyme activity with inhibitor), single determinations ([6]; Thermolysin (TLN), inhibitor 100 μM, preincubation 0 min): 1.137 and 1.068 and 1.02 and 1.001
vi/v0 (relative enzyme activity with inhibitor), single determinations ([6]; Thermolysin (TLN), inhibitor 100 μM, preincubation 15 min): 1.051 and 0.8192 and 1.086 and 1.159
vi/v0 (relative enzyme activity with inhibitor), single determinations ([6]; Thermolysin (TLN), inhibitor 100 μM, preincubation 30 min): 1.144 and 1.0013 and 1.003 and 1.066
vi/v0 avg (time dependent inhibition, Supplementary Figure S8) ([6]; 15 min pre incubation): 1.029
vi/v0 avg (time dependent inhibition, Supplementary Figure S8) ([6]; 30 min pre incubation): 1.054
vi/v0 avg (time dependent inhibition, Supplementary Figure S8) ([6]; No preincubation): 1.056
